Common to all, as to assay type: cell-based
One assay addresses T1, M2 muscarinic receptor (Homo sapiens, UniProt P08172).
T1 construct: expressed in transfected cells; host or cells: CHO (M2-CHO)
T1 sequence (P08172 1-466): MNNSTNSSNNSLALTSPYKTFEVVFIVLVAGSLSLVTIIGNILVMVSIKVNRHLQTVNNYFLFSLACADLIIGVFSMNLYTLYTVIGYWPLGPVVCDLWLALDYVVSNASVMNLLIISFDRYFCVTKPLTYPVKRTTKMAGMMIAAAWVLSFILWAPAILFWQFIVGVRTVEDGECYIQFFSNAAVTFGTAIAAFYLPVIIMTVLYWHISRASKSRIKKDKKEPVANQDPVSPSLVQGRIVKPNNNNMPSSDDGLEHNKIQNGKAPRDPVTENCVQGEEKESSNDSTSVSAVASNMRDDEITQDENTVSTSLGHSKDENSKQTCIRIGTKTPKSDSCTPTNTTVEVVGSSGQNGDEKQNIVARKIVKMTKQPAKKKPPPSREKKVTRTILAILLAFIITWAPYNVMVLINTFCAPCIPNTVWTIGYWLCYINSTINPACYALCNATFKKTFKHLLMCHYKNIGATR
Kind of assay: Functional mobilization of intracellular calcium (FLIPR) in CHO cells expressing M2. Conditions: for EC50: CHO cells expressing M2, FLIPR calcium; for Emax: CHO, 100% = maximum response obtained with the Carbachol control, read-out: M2 Efficacy. The method, boiled down: (§1)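 Calcium flux is read on FLIPR over 60 sec at 488/540 nm in muscarinic-receptor CHO lines. Antagonist mode adds carbachol at EC80 after 15 min compound preincubation or with simultaneous co-application. Agonist mode adds compound alone. Cells carry Fluo-3 or Calcium 3 dye in probenecid-containing pH 7.4 buffer, 0.5% DMSO final.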
(In general: Calcium assays in cells follow changes in intracellular calcium, usually with a dye or a luminescent sensor.)

In another assay the target is T2, M3 muscarinic receptor (Homo sapiens, UniProt P20309).
T2 construct: expressed in transfected cells; host or cells: CHO (M3-CHO)
As to the kind of experiment: Functional mobilization of intracellular calcium (FLIPR) in CHO cells expressing M3. The following applies: for EC50: CHO cells expressing M3, FLIPR calcium; for Emax: CHO, 100% = maximum response obtained with the Carbachol control, read-out: M3 Efficacy. The procedure, abridged: as §1

Another assay deals with T3, M4 muscarinic receptor (Homo sapiens, UniProt P08173).
T3 construct: expressed in transfected cells; host or cells: CHO (M4-CHO)
T3 sequence (P08173 1-479): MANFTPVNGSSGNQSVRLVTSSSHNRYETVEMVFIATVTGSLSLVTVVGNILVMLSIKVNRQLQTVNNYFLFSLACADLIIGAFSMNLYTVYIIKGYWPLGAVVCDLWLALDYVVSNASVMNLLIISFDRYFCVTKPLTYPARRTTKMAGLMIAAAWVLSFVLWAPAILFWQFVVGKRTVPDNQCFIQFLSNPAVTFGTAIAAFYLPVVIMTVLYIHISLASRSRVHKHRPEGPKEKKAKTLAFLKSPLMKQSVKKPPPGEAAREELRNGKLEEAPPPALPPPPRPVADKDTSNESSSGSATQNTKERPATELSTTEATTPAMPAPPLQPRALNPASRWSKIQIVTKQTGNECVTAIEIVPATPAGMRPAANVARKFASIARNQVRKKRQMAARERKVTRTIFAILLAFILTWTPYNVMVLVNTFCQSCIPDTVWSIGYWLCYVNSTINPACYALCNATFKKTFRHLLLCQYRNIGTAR
Kind of assay: Functional mobilization of intracellular calcium (FLIPR) in CHO cells expressing M4. The following applies: for EC50: CHO cells expressing M4, FLIPR calcium; for Emax: CHO, 100% = maximum response obtained with the Carbachol control, read-out: M4 Efficacy. The method, boiled down: as §1

The target of a further assay is T4, M1 muscarinic receptor (Homo sapiens, UniProt P11229).
T4 construct: expressed in transfected cells; host or cells: CHO (M1-CHO)
T4 sequence (P11229 1-460): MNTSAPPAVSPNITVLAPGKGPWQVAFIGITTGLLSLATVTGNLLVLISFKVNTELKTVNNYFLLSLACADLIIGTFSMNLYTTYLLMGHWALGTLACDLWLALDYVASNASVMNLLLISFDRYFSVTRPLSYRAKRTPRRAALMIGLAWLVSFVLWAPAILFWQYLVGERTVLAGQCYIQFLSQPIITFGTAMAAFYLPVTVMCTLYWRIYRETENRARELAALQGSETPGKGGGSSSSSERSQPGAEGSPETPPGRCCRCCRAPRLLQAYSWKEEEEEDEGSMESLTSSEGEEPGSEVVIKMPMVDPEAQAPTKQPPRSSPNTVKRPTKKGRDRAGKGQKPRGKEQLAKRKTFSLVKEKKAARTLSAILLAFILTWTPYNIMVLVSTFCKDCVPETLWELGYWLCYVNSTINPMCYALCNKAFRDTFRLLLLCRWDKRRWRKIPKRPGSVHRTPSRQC
Kind of assay: Functional mobilization of intracellular calcium (FLIPR) in CHO cells expressing M1. The following applies: for EC50: CHO cells expressing M1, FLIPR calcium; for Emax: CHO, 100% = maximum response obtained with the Carbachol control, read-out: M1 Efficacy. The procedure, abridged: as §1

T2 sequence (P20309 whole entry): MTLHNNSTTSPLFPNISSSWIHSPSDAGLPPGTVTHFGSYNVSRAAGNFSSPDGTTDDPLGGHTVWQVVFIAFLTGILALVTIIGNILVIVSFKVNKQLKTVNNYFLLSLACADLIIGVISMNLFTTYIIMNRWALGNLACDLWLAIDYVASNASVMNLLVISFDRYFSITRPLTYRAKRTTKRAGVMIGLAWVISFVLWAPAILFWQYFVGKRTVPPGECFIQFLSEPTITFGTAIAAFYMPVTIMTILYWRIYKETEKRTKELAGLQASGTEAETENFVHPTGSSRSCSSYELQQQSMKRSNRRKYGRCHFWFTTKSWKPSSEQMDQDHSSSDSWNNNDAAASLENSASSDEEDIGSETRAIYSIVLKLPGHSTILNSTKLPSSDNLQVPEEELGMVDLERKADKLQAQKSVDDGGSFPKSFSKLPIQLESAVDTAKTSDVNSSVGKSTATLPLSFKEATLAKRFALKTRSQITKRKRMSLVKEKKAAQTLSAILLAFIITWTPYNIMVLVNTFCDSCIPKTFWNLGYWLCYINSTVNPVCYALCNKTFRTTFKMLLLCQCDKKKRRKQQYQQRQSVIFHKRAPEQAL

On to `CC(=O)N1CCCC(C(=O)N[C@@H]2CCC3(CCN(CCC(C)(C)C)CC3)c3ccccc32)C1` (stereo partly shown) [compound 143], for which the EC50 (commonly the concentration that produces a half-maximal response) on M2 muscarinic receptor was over 5 µM; at M3 muscarinic receptor, over 5 µM; at M4 muscarinic receptor, under 2 µM; at M1 muscarinic receptor it was 2 to 5 µM. Also, the Emax at M2 muscarinic receptor was under 25%; on M3 muscarinic receptor it was under 25%; on M4 muscarinic receptor, 25 to 100%; at M1 muscarinic receptor it was 25 to 100%.

In the case of `CN1CC(C(=O)N[C@H]2CCC3(CCN(CCC(C)(C)C)CC3)c3ccccc32)CC1=O` (stereo partly shown) [compound 144], the EC50 is under 2 µM on M2 muscarinic receptor, over 5 µM on M3 muscarinic receptor, under 2 µM at M4 muscarinic receptor and under 2 µM on M1 muscarinic receptor. For the same compound, the Emax at M2 muscarinic receptor is 25 to 100%; at M3 muscarinic receptor it was under 25%; at M4 muscarinic receptor, 25 to 100%; on M1 muscarinic receptor it was 25 to 100%.

Regarding `CC(C)(C)CCN1CCC2(CC[C@H](NC(=O)CC3CCOCC3)c3ccc(F)cc32)CC1` [compound 145], the 50% effective concentration (EC50) at M2 muscarinic receptor was under 2 µM; on M3 muscarinic receptor, over 5 µM; on M4 muscarinic receptor it was under 2 µM; at M1 muscarinic receptor it was under 2 µM. Further, the Emax on M2 muscarinic receptor is under 25%; at M3 muscarinic receptor, under 25%; at M4 muscarinic receptor it was 25 to 100%; on M1 muscarinic receptor, 25 to 100%.

As to `C[C@@H](C(=O)N[C@@H]1CCC2(CCN(CCC(C)(C)C)CC2)c2ccccc21)N1CCCC1=O` [compound 146], the EC50 is over 5 µM at M2 muscarinic receptor, over 5 µM on M3 muscarinic receptor, under 2 µM at M4 muscarinic receptor and over 5 µM at M1 muscarinic receptor. The Emax was under 25% at M2 muscarinic receptor, under 25% on M3 muscarinic receptor, 25 to 100% at M4 muscarinic receptor and 25 to 100% on M1 muscarinic receptor.

For the compound `COCCC(=O)N[C@H]1CCC2(CCN(CCC(C)(C)C)CC2)c2ccccc21` [compound 147], the EC50 on M2 muscarinic receptor was under 2 µM; on M3 muscarinic receptor, over 5 µM; on M4 muscarinic receptor, under 2 µM; on M1 muscarinic receptor it was under 2 µM. Moreover, the Emax on M2 muscarinic receptor is 25 to 100%; on M3 muscarinic receptor, under 25%; at M4 muscarinic receptor it was 25 to 100%; on M1 muscarinic receptor, 25 to 100%.

In the case of `CC(C)CCN1CCC2(CC[C@H](NC(=O)N(C)C)c3ccccc32)CC1` [compound 148], the concentration giving a half-maximal response (EC50) was over 5 µM on M2 muscarinic receptor, over 5 µM on M3 muscarinic receptor, 2 to 5 µM on M4 muscarinic receptor and over 5 µM on M1 muscarinic receptor. The Emax is under 25% at M2 muscarinic receptor, under 25% at M3 muscarinic receptor, 25 to 100% at M4 muscarinic receptor and under 25% on M1 muscarinic receptor.

As to `CC(=O)N1CCCC[C@@H]1C(=O)N[C@@H]1CCC2(CCN(CCC(C)(C)C)CC2)c2cc(F)ccc21` [compound 149], the EC50 at M2 muscarinic receptor was 2 to 5 µM; at M3 muscarinic receptor it was over 5 µM; on M4 muscarinic receptor it was under 2 µM; on M1 muscarinic receptor, 2 to 5 µM. Also, the Emax on M2 muscarinic receptor was 25 to 100%; on M3 muscarinic receptor it was under 25%; at M4 muscarinic receptor it was 25 to 100%; on M1 muscarinic receptor, 25 to 100%.

As for `CC(=O)N[C@H]1CCC2(CCN(CC=C(C)C)CC2)c2ccccc21` [compound 150], the EC50 was over 5 µM on M2 muscarinic receptor, over 5 µM at M3 muscarinic receptor, 2 to 5 µM on M4 muscarinic receptor and over 5 µM on M1 muscarinic receptor. Besides, the Emax on M2 muscarinic receptor was under 25%; at M3 muscarinic receptor it was under 25%; on M4 muscarinic receptor, 25 to 100%; at M1 muscarinic receptor, 25 to 100%.

In the case of `Cc1cc(C(=O)N[C@H]2CCC3(CCN(CCC(C)(C)C)CC3)c3ccccc32)nn1C` [compound 151], the EC50 on M2 muscarinic receptor is over 5 µM; on M3 muscarinic receptor it was over 5 µM; at M4 muscarinic receptor, under 2 µM; at M1 muscarinic receptor, under 2 µM. Besides, the Emax on M2 muscarinic receptor was under 25%; on M3 muscarinic receptor, under 25%; at M4 muscarinic receptor, 25 to 100%; at M1 muscarinic receptor, 25 to 100%.

Take `CC(C)(C)CCN1CCC2(CC[C@@H](NC(=O)CC3CCOCC3)c3ccccc32)CC1` [compound 152]: the EC50 at M2 muscarinic receptor is over 5 µM; on M3 muscarinic receptor it was over 5 µM; at M4 muscarinic receptor, under 2 µM; on M1 muscarinic receptor, over 5 µM. For the same compound, the Emax at M2 muscarinic receptor is under 25%; at M3 muscarinic receptor, under 25%; at M4 muscarinic receptor, 25 to 100%; on M1 muscarinic receptor, under 25%.

As for `CC(=O)N(C(C)C)[C@H]1CCC2(CCN(CCC(C)(C)C)CC2)c2ccccc21` [compound 154], the EC50 on M2 muscarinic receptor was over 5 µM; on M3 muscarinic receptor it was over 5 µM; on M4 muscarinic receptor it was under 2 µM; at M1 muscarinic receptor, under 2 µM. Further, the Emax on M2 muscarinic receptor is under 25%; on M3 muscarinic receptor it was under 25%; on M4 muscarinic receptor, 25 to 100%; on M1 muscarinic receptor, 25 to 100%.

On to `CCC(=O)N[C@H]1CCC2(CCN(CCC(C)(C)C)CC2)c2ccccc21` [compound 156], for which the EC50 was under 2 µM at M2 muscarinic receptor, over 5 µM on M3 muscarinic receptor, under 2 µM on M4 muscarinic receptor and under 2 µM on M1 muscarinic receptor. The Emax is 25 to 100% at M2 muscarinic receptor, under 25% on M3 muscarinic receptor, 25 to 100% at M4 muscarinic receptor and 25 to 100% at M1 muscarinic receptor.

As to `C[C@H](C(=O)N[C@@H]1CCC2(CCN(CCC(C)(C)C)CC2)c2ccccc21)N1CCCC1=O` [compound 157], the EC50 on M2 muscarinic receptor is under 2 µM; at M3 muscarinic receptor it was over 5 µM; at M4 muscarinic receptor, under 2 µM; on M1 muscarinic receptor, 2 to 5 µM. The Emax is under 25% at M2 muscarinic receptor, under 25% at M3 muscarinic receptor, 25 to 100% at M4 muscarinic receptor and 25 to 100% on M1 muscarinic receptor.

For `CC(C)(C)CCN1CCC2(CC[C@H](NC(=O)C3CC3)c3ccccc32)CC1` [compound 158], the EC50 on M2 muscarinic receptor was under 2 µM; at M3 muscarinic receptor, over 5 µM; on M4 muscarinic receptor, under 2 µM; on M1 muscarinic receptor, under 2 µM. Also, the Emax on M2 muscarinic receptor was 25 to 100%; at M3 muscarinic receptor, under 25%; at M4 muscarinic receptor it was 25 to 100%; at M1 muscarinic receptor it was 25 to 100%.

Regarding `CC(=O)N[C@H]1CCC2(CCN(CCC(C)C)CC2)c2ccccc21` [compound 159], the EC50 is over 5 µM on M2 muscarinic receptor, over 5 µM at M3 muscarinic receptor, under 2 µM on M4 muscarinic receptor and under 2 µM on M1 muscarinic receptor. Also, the Emax at M2 muscarinic receptor was under 25%; at M3 muscarinic receptor, under 25%; on M4 muscarinic receptor, 25 to 100%; on M1 muscarinic receptor it was 25 to 100%.

For the compound `CC(=O)N1CCC[C@@H]1C(=O)N[C@H]1CCC2(CCN(CCC(C)(C)C)CC2)c2ccccc21` [compound 160], the EC50 is over 5 µM at M2 muscarinic receptor, over 5 µM at M3 muscarinic receptor, under 2 µM at M4 muscarinic receptor and under 2 µM at M1 muscarinic receptor. For the same compound, the Emax was under 25% at M2 muscarinic receptor, under 25% on M3 muscarinic receptor, 25 to 100% on M4 muscarinic receptor and 25 to 100% at M1 muscarinic receptor.

On to `CN([C@H]1CCC2(CCN(CCC(C)(C)C)CC2)c2ccccc21)S(C)(=O)=O` [compound 161], for which the EC50 on M2 muscarinic receptor was over 5 µM; on M3 muscarinic receptor, over 5 µM; at M4 muscarinic receptor, under 2 µM; on M1 muscarinic receptor, under 2 µM. The Emax at M2 muscarinic receptor was under 25%; at M3 muscarinic receptor, under 25%; on M4 muscarinic receptor, 25 to 100%; on M1 muscarinic receptor it was 25 to 100%.

The values are drawn from patent US8003660B2, “Modulators of muscarinic receptors” (Vertex Pharmaceuticals Incorporated, priority 2006, dated 2011).
